pKi: −log10 of the molar value. Structures can show the parent of a compound that is named as a salt.
Tested on: not given
Experiment: not given
Conditions: not given

Row | SMILES | melting point
1 | c1cc2c(c(Cc3ccc4[nH]ccc4c3)c1)CNCC2 | 173 to 174 °C
2 | CNCCc1ccccc1Cc1ccc2[nH]ccc2c1 | 95 to 97 °C
3 | c1cc2c(c(Cc3ccc4[nH]ccc4c3)c1)CCNC2 | 194 to 195 °C
4 | CNCc1ccccc1Cc1ccc2[nH]ccc2c1 (as salt: hydrochloride) [Compound 1, [2-(1H-Indol-5-ylmethyl)-benzyl]-methyl-amine] | 198 to 199 °C
5 | CNCc1ccccc1Cc1ccc2cc[nH]c2c1 [Compound 15, [2-(1H-Indol-6-ylmethyl)-benzyl]-methyl-amine] | 132 °C
6 | CNCc1ccccc1Cc1cccc2[nH]ccc12 [Compound 16, [2-(1H-Indol-4-ylmethyl)-benzyl]-methyl-amine] | 111 to 112 °C
7 | c1ccc(CN2CCC2)c(Cc2ccc3[nH]ccc3c2)c1 [Compound 18, 5-(2-Azetidin-1-ylmethyl-benzyl)-1H-indole] | 128 to 130 °C
8 | CNCc1cc(F)ccc1Cc1ccc2[nH]ccc2c1 [Compound 20, [5-Fluoro-2-(1H-indol-5-ylmethyl)-benzyl]-methyl-amine] | 162 to 163 °C
9 | OCCNCc1ccccc1Cc1ccc2[nH]ccc2c1 [Compound 21, 2-[2-(1H-Indol-5-ylmethyl)-benzylamino]-ethanol] | 117 to 118 °C
10 | CNCc1ccccc1C(O)c1ccc2[nH]ccc2c1 (stereo not drawn) [Compound 24, (1H-Indol-5-yl)-(2-methylaminomethyl-phenyl)-methanol] | 75 to 78 °C
11 | c1ccc(Cn2ccnc2)c(Cc2ccc3[nH]ccc3c2)c1 [Compound 25, 5-(2-Imidazol-1-ylmethyl-benzyl)-1H-indole] | 61 to 67 °C
12 | CNCc1cc(Cl)ccc1Cc1ccc2[nH]ccc2c1 [Compound 27, [5-Chloro-2-(1H-indol-5-ylmethyl)-benzyl]-methyl-amine] | 164 to 165 °C
13 | CNCc1ccccc1Cc1ccc2[nH]cc(C#N)c2c1 [Compound 29, 5-(2-Methylaminomethyl-benzyl)-1H-indole-3-carbonitrile] | 179 to 180 °C
14 | CNCc1cccc(Cc2ccc3[nH]ccc3c2)c1 [Compound 32, [3-(1H-Indol-5-ylmethyl)-benzyl]-methyl-amine] | 153 °C
15 | CNCc1ccc(OC)cc1Cc1ccc2[nH]ccc2c1 [Compound 33, [2-(1H-Indol-5-ylmethyl)-4-methoxy-benzyl]-methyl-amine] | 157 to 158 °C

The next lines start with the values.

Row | melting point | SMILES
16 | 135 to 136 °C | CNCc1cc(N2CCOCC2)ccc1Cc1ccc2[nH]ccc2c1 (as salt: fumarate) [Compound 39, [2-(1H-Indol-5-ylmethyl)-5-morpholin-4-yl-benzyl]-methyl-amine]
17 | 179 to 180 °C | CNCc1ccccc1Cc1ccc2[nH]c(S(C)(=O)=O)cc2c1 (as salt: fumarate) [Compound 49, [2-(2-Methanesulfonyl-1H-indol-5-ylmethyl)-benzyl]-methyl-amine]
18 | 155 to 156 °C | CNCc1cc(OC)ccc1Cc1ccc2[nH]ccc2c1 [Compound 34, [2-(1H-Indol-5-ylmethyl)-5-methoxy-benzyl]-methyl-amine]
19 | 144 to 145 °C | CNCc1cc(C#N)ccc1Cc1ccc2[nH]ccc2c1 [Compound 38, 4-(1H-Indol-5-ylmethyl)-3-methylaminomethyl-benzonitrile]
20 | 125 to 126 °C | CNCc1cc(NS(C)(=O)=O)ccc1Cc1ccc2[nH]ccc2c1 [Compound 41, N-[4-(1H-Indol-5-ylmethyl)-3-methylaminomethyl-phenyl]-methanesulfonamide]
21 | 100 to 102 °C | O=C1CNCCN1c1ccccc1Cc1ccc2[nH]ccc2c1 [Compound 42, 1-[2-(1H-Indol-5-ylmethyl)-phenyl]-piperazin-2-one]
22 | 160 to 163 °C | CNCc1ccc(C#N)cc1Cc1ccc2[nH]ccc2c1 [Compound 43, 3-(1H-Indol-5-ylmethyl)-4-methylaminomethyl-benzonitrile]
23 | 97 to 100 °C | CNCc1ccc(C(N)=O)cc1Cc1ccc2[nH]ccc2c1 [Compound 44, 3-(1H-Indol-5-ylmethyl)-4-methylaminomethyl-benzamide]
24 | 152 to 153 °C | CNCc1scnc1Cc1ccc2[nH]ccc2c1 [Compound 45, [4-(1H-Indol-5-ylmethyl)-thiazol-5-ylmethyl]-methyl-amine]
25 | 70 to 72 °C | NCC(O)c1ccccc1Cc1ccc2[nH]ccc2c1 (stereo not drawn) [Compound 47, 2-Amino-1-[2-(1H-indol-5-ylmethyl)-phenyl]-ethanol]
26 | 189 to 190 °C | c1ccc(N2CCOCC2)c(Cc2ccc3[nH]ccc3c2)c1 [Compound 48, 5-(2-Morpholin-4-yl-benzyl)-1H-indole]

Target: T1, human serotonin transporter (hSERT) (Homo sapiens, UniProt P31645)
T1 construct: expressed in transfected cells; Tatsumi et al. 1997), membrane preparation
T1 sequence (P31645 whole entry): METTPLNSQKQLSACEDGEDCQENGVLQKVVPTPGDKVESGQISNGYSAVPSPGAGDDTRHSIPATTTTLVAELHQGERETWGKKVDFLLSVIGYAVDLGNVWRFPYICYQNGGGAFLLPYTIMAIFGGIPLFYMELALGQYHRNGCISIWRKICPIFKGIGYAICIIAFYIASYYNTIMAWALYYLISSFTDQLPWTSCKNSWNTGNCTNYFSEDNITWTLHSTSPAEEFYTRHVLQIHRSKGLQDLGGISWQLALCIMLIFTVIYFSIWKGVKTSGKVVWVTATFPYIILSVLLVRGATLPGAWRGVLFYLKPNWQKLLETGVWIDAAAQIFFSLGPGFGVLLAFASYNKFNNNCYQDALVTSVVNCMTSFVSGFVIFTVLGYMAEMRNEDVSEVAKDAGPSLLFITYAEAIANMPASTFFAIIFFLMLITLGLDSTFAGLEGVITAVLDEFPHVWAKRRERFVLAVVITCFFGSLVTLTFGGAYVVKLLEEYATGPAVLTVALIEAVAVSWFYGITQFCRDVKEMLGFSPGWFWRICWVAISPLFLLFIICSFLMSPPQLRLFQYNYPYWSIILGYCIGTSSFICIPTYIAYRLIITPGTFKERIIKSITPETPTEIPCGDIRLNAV
Experiment: Screening for human serotonin transporter (hSERT) antagonists, scintillation proximity assay, competition with [3H]-Citalopram
Format: binding
Conditions: membranes of HEK-293 cells, SPA
Description: The screening assay of this example was used to determine the affinity of ligands at the hSERT transporter by competition with [^3H]-Citalopram.
Scintillation Proximity Assay (SPA) works by bringing radioligand within close proximity to the bead's scintillant to stimulate light emission. In this assay, the receptor-containing membranes were pre-coupled to the SPA beads and the binding of the appropriate radioligand to the transporter was measured. The light emission was proportional to the amount of bound radioligand. Unbound radioligand produced no signal as a result of distant proximity to scintillant (lack of energy transfer). […]
Cell membranes were prepared using a membrane preparation buffer of 50 mM TRIS (pH 7.4). […] After a second centrifugation, the pellet was re-homogenized and brought to a final volume determined during the assay. […]
The % inhibition was calculated for each compound tested [(Compound counts per minute (CPM) at maximum concentration-Non-Specific CPM)/Total CPM*100]. […]
[formula] where max=total binding, min=non specific binding, x=concentration (M) of the tested compound and n=Hill slope. The inhibition dissociation constant (Ki) of each compound was determined according to the method of Cheng-Prusoff and then converted into negative logarithm (pKi) of the Ki.

Row | pKi | SMILES
27 | ~10.00 | CNCc1ccccc1Cc1ccc2[nH]cc(C#N)c2c1 [Compound 29, 5-(2-Methylaminomethyl-benzyl)-1H-indole-3-carbonitrile]
